The source of these data is ChEMBL document CHEMBL3400035, “Synthesis, in vitro anticancer and antimycobacterial evaluation of new 5-(2,5-dimethoxyphenyl)-1,3,4-thiadiazole-2-amino derivatives” (Bioorg Med Chem Lett, 2015).

Data set [1] relates to HT-29. Briefly: Cytotoxicity against human HT-29 cells assessed as growth inhibition at 25 uM by MTT assay. It is filed as functional. As to conditions: read-out: GI. (In general: Tetrazolium dyes change colour on reduction, which living cells bring about.)
The subject of data set [2] is MDA-MB-231. Briefly: Cytotoxicity against human MDA-MB-231 cells assessed as growth inhibition at 25 uM by MTT assay. The class given is functional. As to conditions: read-out: GI.
The test system of data set [3] is Mycolicibacterium smegmatis. Nature of the data set: Anti-tubercular activity against Mycobacterium smegmatis str. MC2 155. It is filed as functional, organism-based.
The test system of data set [4] is Mycolicibacterium smegmatis. Briefly: Anti-tubercular activity against Mycobacterium smegmatis str. MC2 155 relative to untreated control. It is filed as functional.
The nature of data set [5]: Cytotoxicity against HEK293 cells assessed as cell growth at 25 uM by MTT assay. It is filed as cell-based. As to conditions: human, read-out: Activity.
For data set [6], the system named is Mycolicibacterium smegmatis. Briefly: Anti-tubercular activity against Mycobacterium smegmatis str. MC2 155 at 30 uM. It is filed as functional, organism-based.
Data set [7] concerns MDA-MB-231. Nature of the data set: Cytotoxicity against human MDA-MB-231 cells assessed as growth inhibition by MTT assay. It is filed as functional, cell-based.

The structures appear in SMILES notation. pIC50: −log10 of the molar value. Activity calls are given as the source filed them. The rule behind the calls is not given here. Where only a bound is given, the exact number is not on record here.

The term pIC50 denotes the negative decadic logarithm of the IC50, by convention in mol/L. Turning to `CCN1CCN(c2nnc(-c3cc(OC)ccc3OC)s2)CC1`, the inhibition of growth at 25 µM in data set [1] was 9.91%; in data set [2] it was 34.6%. This compound also had a pIC50 in data set [3] of under 4.00. Besides, the “inhibition (INH)” value in data set [4] is given as “>=30%”. Also, the viability at 25 µM in data set [5] is over 74.5%.
For `COc1ccc(OC)c(-c2nnc(NCc3ccc(Cl)cc3)s2)c1`, in that order: 68.7%, 53.8%, under 4.00, “>=30%” and under 74.5%.
Take `COc1ccc(OC)c(-c2nnc(-n3ccc4cc(OC)ccc43)s2)c1`: the inhibition of growth at 25 µM in data set [1] came to 5.65%; in data set [2], 24.7%. Also, the viability at 25 µM in data set [5] was over 74.5%. In data set [6], the inhibition entry is “inactive”.
For `COc1ccc(OC)c(-c2nnc(N3CCCCC3)s2)c1`, in that order: 3.67%, 32.8%, over 74.5% and “inactive”.
As to `COc1ccc(OC)c(-c2nnc(NCc3ccc(Br)cc3)s2)c1`, the inhibition of growth at 25 µM was 45.4% in data set [1] and 51.5% in data set [2]. For the same compound, the pIC50 in data set [3] is under 4.00. The “inhibition (INH)” value in data set [4] is given as “>=30%”. Besides, the viability at 25 µM in data set [5] is under 74.5%.
Consider `COc1ccc(OC)c(-c2nnc(N3CCCC(O)C3)s2)c1` (stereo not drawn), for which the inhibition of growth at 25 µM is 31.1% in data set [1] and 39.7% in data set [2]. Besides, the negative logarithm of the IC50 (pIC50) in data set [3] was under 4.00. Also, in data set [4], the “inhibition (INH)” value is given as “>=30%”. Moreover, the viability at 25 µM in data set [5] was over 74.5%.
In the case of `COc1ccc(OC)c(-c2nnc(-c3ccc(C)c([N+](=O)[O-])c3)s2)c1`, the inhibition of growth at 25 µM in data set [1] is 51.9%; in data set [2], 53.3%. The viability at 25 µM in data set [5] is over 74.5%. The inhibition entry in data set [6] is “inactive”.
Regarding `COc1ccc(OC)c(-c2nnc(N3CCC(=O)CC3)s2)c1`, the inhibition of growth at 25 µM in data set [1] worked out at 33.7%; in data set [2], 32.5%. Besides, the pIC50 in data set [3] was under 4.00. The “inhibition (INH)” value in data set [4] is listed as “>=30%”. In addition, the viability at 25 µM in data set [5] is over 74.5%.
With `COc1ccc(OC)c(-c2nnc(-n3ccnc3)s2)c1`, the inhibition of growth at 25 µM is 21% in data set [1] and 33.5% in data set [2]. The viability at 25 µM in data set [5] was over 74.5%. Further, the inhibition entry in data set [6] is “inactive”.
Turning to `COc1ccc(OC)c(-c2nnc(N3CCC(Cc4ccccc4)CC3)s2)c1`, the inhibition of growth at 25 µM in data set [1] was determined as 51%; in data set [2], 33.6%. For the same compound, the pIC50 in data set [3] was 4.18. Also, in data set [4], the “inhibition (INH)” value is on record as “>=30%”. Further, in data set [5], the viability at 25 µM is over 74.5%.
On the same counts, the results for `COc1ccc(OC)c(-c2nnc(N3CCNCC3)s2)c1` are 25.5%, 41.6%, 4.06, “>=30%” and over 74.5%.
For `COc1ccc(OC)c(-c2nnc(Cl)s2)c1`, in that order: 8.81%, 33.7%, 4.12, “>=30%” and over 74.5%.
On the same counts, the results for `COc1ccc(CN2CCN(c3nnc(-c4cc(OC)ccc4OC)s3)CC2)cc1` are 39.8%, 36.5%, 4.10, “>=30%” and over 74.5%.
For `COc1ccc(OC)c(-c2nnc(NCc3cccc(C(F)(F)F)c3)s2)c1`, the inhibition of growth at 25 µM was found to be 52.6% in data set [1] and 51.2% in data set [2]. Also, the pIC50 in data set [3] was 4.39. Moreover, in data set [4], the “inhibition (INH)” value is “>=30%”. In addition, in data set [5], the viability at 25 µM is under 74.5%.
On the same counts, the results for `COc1ccc(OC)c(CNc2nnc(-c3cc(OC)ccc3OC)s2)c1` are 47.2%, 30.2%, under 4.00, “>=30%” and over 74.5%.
For `NNC(=O)c1ccncc1` [ISONIAZID], the pIC50 in data set [3] is 4.80.
In the case of `COc1ccc(OC)c(-c2nnc(N3CCCC3)s2)c1`, the inhibition of growth at 25 µM in data set [1] turned out to be 18.8%; in data set [2], 38.1%. Further, the viability at 25 µM in data set [5] was over 74.5%. In addition, the inhibition entry in data set [6] was “inactive”.
Regarding `COc1cccc2c1C(=O)c1c(O)c3c(c(O)c1C2=O)C[C@@](O)(C(=O)CO)C[C@@H]3O[C@H]1C[C@H](N)[C@H](O)[C@H](C)O1` [DOXORUBICIN], the pIC50 in data set [7] is 6.00.
In the case of `COc1ccc(OC)c(-c2nnc(NCc3ccccc3)s2)c1`, the inhibition of growth at 25 µM in data set [1] stood at 68.3%; in data set [2], 63%. The pIC50 in data set [3] was 4.12. In addition, the “inhibition (INH)” value in data set [4] is listed as “>=30%”. Further, in data set [5], the viability at 25 µM is under 74.5%.
As to `CO[C@H]1/C=C/O[C@@]2(C)Oc3c(C)c(O)c4c(O)c(c(/C=N/N5CCN(C)CC5)c(O)c4c3C2=O)NC(=O)/C(C)=C\C=C\[C@H](C)[C@H](O)[C@@H](C)[C@@H](O)[C@@H](C)[C@H](OC(C)=O)[C@@H]1C` [RIFAMPIN], the pIC50 in data set [3] is 5.73.
Consider `COc1ccc(OC)c(-c2nnc(N3CCOCC3)s2)c1`, for which the figures for the inhibition of growth at 25 µM in data set [1] and in data set [2] were 18.2% and 31.2%, respectively. This compound also showed a pIC50 in data set [3] of under 4.00. For the same compound, the “inhibition (INH)” value in data set [4] was “>=30%”. For the same compound, the viability at 25 µM in data set [5] is over 74.5%.
For `COc1ccc(OC)c(-c2nnc(N)s2)c1`, the values for the inhibition of growth at 25 µM in data set [1] and in data set [2] were 20.6% and 32%, respectively. In data set [3], this compound showed a pIC50 of under 4.00. Moreover, the “inhibition (INH)” value in data set [4] is reported as “>=30%”. For the same compound, in data set [5], the viability at 25 µM is over 74.5%.
